Laboratory results reported in patent US12466781B2, “Thyromimetics” (Autobahn Therapeutics, Inc., priority 2019, dated 2025).

Legend:
TRα = target: T1, TRα (Homo sapiens, UniProt P10827); assay: Thyroid-hormone reporter-gene assay (TRα-Gal4 hybrid, luciferase, HEK293); assay type: cell-based; settings: reporter cells, 24 hr incubation; Table 2; read-out: TRα (EC50)
T1 construct: expressed in transfected cells; host or cells: HEK293
T1 sequence (P10827 163-410 isoform P10827-2 limits assumed): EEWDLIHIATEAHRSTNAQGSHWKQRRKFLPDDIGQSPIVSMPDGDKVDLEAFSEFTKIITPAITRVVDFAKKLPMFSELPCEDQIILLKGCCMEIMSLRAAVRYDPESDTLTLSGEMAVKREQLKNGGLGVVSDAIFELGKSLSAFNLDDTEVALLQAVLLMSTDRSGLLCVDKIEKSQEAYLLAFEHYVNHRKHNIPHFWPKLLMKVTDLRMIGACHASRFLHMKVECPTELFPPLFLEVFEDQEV
Experimental: (§1) Compounds were tested for thyroid-hormone receptor activity using TR reporter-gene assays. Reporter cells used in the assays express a TR-receptor hybrid (either TRα or TRβ) in which the native N-terminal DNA binding domain (DBD) has been replaced with that of the yeast Gal4 DBD. The reporter gene, firefly luciferase, is functionally linked to the Gal4 upstream activation sequence (UAS). Both cell lines were derived from human embryonic kidney (HEK293).
(§2) Step 1: A suspension of reporter cells was prepared in cell recovery medium containing 10% charcoal-stripped FBS, and dispensed into assay plates. The plates were pre-incubated for 6 hours in a cell culture incubator (37° C./5% CO2/85% humidity).
(§3) These intermediate stocks were subsequently diluted directly into compound screening medium containing 10% charcoal-stripped FBS to generate “2×-concentration” treatment media (containing 0.2, 0.4 or 0.8% DMSO).
(§4) Step 3: At the end of the pre-incubation period, culture media were discarded from the assay plates, and all wells received 100 μl of compound screening medium. 100 μl of each of the previously prepared “2×-concentration” treatment media were dispensed into duplicate assay wells, thereby achieving the desired final treatment concentrations. The final concentration of DMSO in all assay wells was 0.1, 0.2 or 0.4%. Assay plates were incubated for 24 hr in a cell culture incubator (37° C./5% CO2/85% humidity).
(§5) Step 4: At the 24 h assay endpoint, treatment media were discarded and 100 μl/well of luciferase detection reagent was added. Relative luminometer units (RLUs) were quantified from each assay well.

TRβ = target: T2, TRβ (Homo sapiens, UniProt P10828); assay: Thyroid-hormone reporter-gene assay (TRβ-Gal4 hybrid, luciferase, HEK293); assay type: cell-based; settings: Table 2; for T3-SI (selectivity index): calculated as EC50 (TRα)/EC50 (TRβ); for EC50: reporter cells, 24 hr incubation, read-out: TRβ (EC50)
T2 construct: expressed in transfected cells; host or cells: HEK293
T2 sequence (P10828 217-461 limits assumed): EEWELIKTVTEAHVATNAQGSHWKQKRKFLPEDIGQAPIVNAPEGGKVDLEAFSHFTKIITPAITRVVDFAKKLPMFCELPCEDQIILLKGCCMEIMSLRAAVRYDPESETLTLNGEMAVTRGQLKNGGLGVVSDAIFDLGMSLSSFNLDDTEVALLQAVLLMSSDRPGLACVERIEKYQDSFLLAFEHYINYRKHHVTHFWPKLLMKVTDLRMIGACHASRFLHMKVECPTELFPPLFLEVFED
Experimental: as §1, §2, §3, §4, §5

| SMILES | EC50 (TRα) | T3-SI (selectivity index) (TRβ) | EC50 (TRβ) |
| --- | --- | --- | --- |
| Cc1cc(OCC(=O)O)cc(C)c1Cc1ccc(O)c(C(C)C)c1F [Compound 2, 2-(4-(2-fluoro-4-hydroxy-3-isopropylbenzyl)-3,5-dimethylphenoxy)acetic acid] | > 1000 nM | ++ (3×<T3-SI≤30×) | 100 to 1000 nM |
| Cc1cc(OCC(=O)O)cc(C)c1Cc1ccc(O)c(-c2cccc(OC(F)F)c2)c1F [Compound 3, 2-(4-((3′-(difluoromethoxy)-2-fluoro-6-hydroxy-[1,1′-biphenyl]-3-yl)methyl)-3,5-dimethylphenoxy)acetic acid] | > 1000 nM | ++ (3×<T3-SI≤30×) | 100 to 1000 nM |
| Cc1cc(OCC(=O)O)cc(C)c1Cc1ccc(O)c(C(C)c2ccc(F)cc2)c1F (stereo not drawn) [Compound 6, 2-(4-(2-fluoro-3-(1-(4-fluorophenyl)ethyl)-4-hydroxybenzyl)-3,5-dimethylphenoxy)acetic acid] | 10 to 100 nM | ++ (3×<T3-SI≤30×) | < 10 nM |
| CCc1cc(OCC(=O)O)cc(C)c1Cc1ccc(O)c(C(C)C)c1F [Compound 9, 2-(3-ethyl-4-(2-fluoro-4-hydroxy-3-isopropylbenzyl)-5-methylphenoxy)acetic acid] | 10 to 100 nM | ++ (3×<T3-SI≤30×) | 10 to 100 nM |
| C=C(C)c1cc(OCC(=O)O)cc(C)c1Cc1ccc(O)c(C(C)C)c1F [Compound 12, 2-(4-(2-fluoro-4-hydroxy-3-isopropylbenzyl)-3-methyl-5-(prop-1-en-2-yl)phenoxy)acetic acid] | 10 to 100 nM | ++ (3×<T3-SI≤30×) | < 10 nM |
| Cc1cc(OCC(=O)O)cc(C(C)C)c1Cc1ccc(O)c(C(C)C)c1F [Compound 13, 2-(4-(2-fluoro-4-hydroxy-3-isopropylbenzyl)-3-isopropyl-5-methylphenoxy)acetic acid] | < 10 nM | ++ (3×<T3-SI≤30×) | < 10 nM |
| CON(C)C(=O)COc1cc(Cl)c(Cc2ccc(O)c(C(C)C)c2F)c(Cl)c1 [Compound 22, 2-(3,5-dichloro-4-(2-fluoro-4-hydroxy-3-isopropylbenzyl)phenoxy)-N-methoxy-N-methylacetamide] | 10 to 100 nM | ++ (3×<T3-SI≤30×) | 10 to 100 nM |
| O=C(O)COc1cc(Cl)c(Cc2ccc(O)c(-c3cccc(OC(F)F)c3)c2F)c(Cl)c1 [Compound 24, 2-(3,5-dichloro-4-((3′-(difluoromethoxy)-2-fluoro-6-hydroxy-[1,1′-biphenyl]-3-VI)methyl)phenoxy)acetic acid] | 100 to 1000 nM | ++ (3×<T3-SI≤30×) | 10 to 100 nM |
| O=C(O)COc1cc(Cl)c(Cc2ccc(O)c(-c3cc(C(F)(F)F)ccc3F)c2F)c(Cl)c1 [Compound 25, 2-(3,5-dichloro-4-((2,2′-difluoro-6-hydroxy-5′-(trifluoromethyl)-[1,1′-biphenyl]-3-yl)methyl)phenoxy)acetic acid] | 10 to 100 nM | ++ (3×<T3-SI≤30×) | < 10 nM |
| O=C(O)COc1cc(Cl)c(Cc2ccc(O)c(-c3cc(OC(F)F)ccc3F)c2F)c(Cl)c1 [Compound 26, 2-(3,5-dichloro-4-((5′-(difluoromethoxy)-2,2′-difluoro-6-hydroxy-[1,1′-biphenyl]-3-VI)methyl)phenoxy)acetic acid] | 100 to 1000 nM | ++ (3×<T3-SI≤30×) | 10 to 100 nM |
| O=C(O)COc1cc(Cl)c(Cc2ccc(O)c(Cc3ccc(F)cc3)c2F)c(Cl)c1 [Compound 28, 2-(3,5-dichloro-4-(2-fluoro-3-(4-fluorobenzyl)-4-hydroxybenzyl)phenoxy)acetic acid] | 10 to 100 nM | ++ (3×<T3-SI≤30×) | 10 to 100 nM |
| CC(c1ccc(F)cc1)c1c(O)ccc(Cc2c(Cl)cc(OCC(=O)O)cc2Cl)c1F (stereo not drawn) [Compound 30, 2-(3,5-dichloro-4-(2-fluoro-3-(1-(4-fluorophenyl)ethyl)-4-hydroxybenzyl)phenoxy)acetic acid] | 10 to 100 nM | ++ (3×<T3-SI≤30×) | < 10 nM |
| CCC(c1ccc(F)cc1)c1c(O)ccc(Cc2c(Cl)cc(OCC(=O)O)cc2Cl)c1F (stereo not drawn) [Compound 32, 2-(3,5-dichloro-4-(2-fluoro-3-(1-(4-fluorophenyl)propyl)-4-hydroxybenzyl)phenoxy)acetic acid] | 100 to 1000 nM | ++ (3×<T3-SI≤30×) | 10 to 100 nM |
| CCCC(c1ccc(F)cc1)c1c(O)ccc(Cc2c(Cl)cc(OCC(=O)O)cc2Cl)c1F (stereo not drawn) [Compound 34, 2-(3,5-dichloro-4-(2-fluoro-3-(1-(4-fluorophenyl)butyl)-4-hydroxybenzyl)phenoxy)acetic acid] | > 1000 nM | ++ (3×<T3-SI≤30×) | 100 to 1000 nM |
| Cc1cc(OCC(=O)O)cc(Cl)c1Cc1ccc(O)c(C(C)C)c1F [Compound 36, 2-(3-chloro-4-(2-fluoro-4-hydroxy-3-isopropylbenzyl)-5-methylphenoxy)acetic acid] | 10 to 100 nM | ++ (3×<T3-SI≤30×) | 10 to 100 nM |
| CC(C)c1c(O)ccc(Cc2c(Cl)cc(OCC(=O)O)cc2Br)c1F [Compound 40, 2-(3-bromo-5-chloro-4-(2-fluoro-4-hydroxy-3-isopropylbenzyl)phenoxy)acetic acid] | < 10 nM | ++ (3×<T3-SI≤30×) | < 10 nM |
| CCc1cc(OCC(=O)O)cc(Cl)c1Cc1ccc(O)c(C(C)C)c1F [Compound 43, 2-(3-chloro-5-ethyl-4-(2-fluoro-4-hydroxy-3-isopropylbenzyl)phenoxy)acetic acid] | 10 to 100 nM | ++ (3×<T3-SI≤30×) | 10 to 100 nM |
| C=C(C)c1cc(OCC(=O)O)cc(Cl)c1Cc1ccc(O)c(C(C)C)c1F [Compound 46, 2-(3-chloro-4-(2-fluoro-4-hydroxy-3-isopropylbenzyl)-5-(prop-1-en-2-yl)phenoxy)acetic acid] | 10 to 100 nM | ++ (3×<T3-SI≤30×) | < 10 nM |
| CC(C)c1cc(OCC(=O)O)cc(Cl)c1Cc1ccc(O)c(C(C)C)c1F [Compound 47, 2-(3-chloro-4-(2-fluoro-4-hydroxy-3-isopropylbenzyl)-5-isopropylphenoxy)acetic acid] | < 10 nM | ++ (3×<T3-SI≤30×) | < 10 nM |
| CC(C)c1c(O)ccc(Cc2c(Cl)cc(OCC(=O)O)cc2Cl)c1Cl [Compound 49, 2-(3,5-dichloro-4-(2-chloro-4-hydroxy-3-isopropylbenzyl)phenoxy)acetic acid] | 100 to 1000 nM | ++ (3×<T3-SI≤30×) | 10 to 100 nM |
| COc1c(Cc2c(Cl)cc(OCC(=O)O)cc2Cl)ccc(O)c1C(C)C [Compound 54, 2-(3,5-dichloro-4-(4-hydroxy-3-isopropyl-2-methoxybenzyl)phenoxy)acetic acid] | > 1000 nM | ++ (3×<T3-SI≤30×) | 100 to 1000 nM |
| Cc1cc(OCC(=O)O)c(F)c(C)c1Cc1ccc(O)c(C(C)C)c1 [Compound 58, 2-(2-fluoro-4-(4-hydroxy-3-isopropylbenzyl)-3,5-dimethylphenoxy)acetic acid] | 100 to 1000 nM | +++ (T3-SI>30×) | 10 to 100 nM |
| C=Cc1c(F)c(OCC(=O)O)cc(Cl)c1Cc1ccc(O)c(C(C)C)c1 [Compound 67, 2-(5-chloro-2-fluoro-4-(4-hydroxy-3-isopropylbenzyl)-3-vinylphenoxy)acetic acid] | 100 to 1000 nM | ++ (3×<T3-SI≤30×) | 10 to 100 nM |
| CCc1c(F)c(OCC(=O)O)cc(Cl)c1Cc1ccc(O)c(C(C)C)c1 [Compound 69, 2-(5-chloro-3-ethyl-2-fluoro-4-(4-hydroxy-3-isopropylbenzyl)phenoxy)acetic acid] | > 1000 nM | ++ (3×<T3-SI≤30×) | 100 to 1000 nM |
| CC(C)c1cc(Cc2c(Cl)cc(OCC(=O)O)c(F)c2C(C)C)ccc1O [Compound 73, 2-(5-chloro-2-fluoro-4-(4-hydroxy-3-isopropylbenzyl)-3-isopropylphenoxy)acetic acid] | > 1000 nM | +++ (T3-SI>30×) | 100 to 1000 nM |
